Experimental findings from patent publication US20130281491A1 (priority 2010, published 2013) are described below.

The nature of this series: Forced degradation of methadone hydrochloride solutions (HPLC). The settings on record: 1M hydrochloric acid or 0.1M sodium hydroxide, 25° C. for a week.

For `CCC(=O)C(CC(C)N(C)C)(c1ccccc1)c1ccccc1` (stereo not shown) [methadone], the “Stability with acids and bases” value is “no detected degradation”.
